Patent publication US12295973B2 (Fred Hutchinson Cancer Center, priority 2017, dated 2025)
Where a SMILES comes first, the peptide text is derived from it. [ ]: non-standard residue; d: D form. The star is where a group is joined. dPhe(4-NHCONH2) = NC(=O)Nc1ccc(C[C@@H](N)C(=O)O)cc1; Dihydroorotyl(S) = O=C1C[C@@H](C(=O)*)NC(=O)N1; dPhe(4-Cl) = N[C@H](Cc1ccc(Cl)cc1)C(=O)O; Phe(4-NH2) = Nc1ccc(C[C@H](N)C(=O)O)cc1; d2Nal = N[C@H](Cc1ccc2ccccc2c1)C(=O)O; Lys(iPr) = CC(C)NCCCC[C@H](N)C(=O)O; d3Pal = N[C@H](Cc1cccnc1)C(=O)O

Assays:
functional HSCs = assay: Adapted competitive repopulation functional assay (BM and spleen cells of treated L-TBI mice transplanted into irradiated hosts); type: in vivo, mouse; details: cells collected day 14 after L-TBI; vs recipients of cells from vehicle-treated mice
Experimental: To investigate the specific regenerative effects mediated by LHRH-Ant treatment on the hematopoietic stem and progenitor cell (HSPC) compartment, BM were analyzed at several time points after L-TBI. […] To determine hematopoietic functional potential, colony-forming unit activity was next quantified to determine the effects of LHRH-Ant on the recovery of committed hematopoietic progenitor cells. […] Consistent with these functional findings, on day 14 after L-TBI, expansion of LSKs as well as their downstream progenitors in mice given LHRH-Ant were found (FIGS. 2F, 2G). […] However, given the changes in HSC phenotype after radiation, the standard competitive repopulation functional assay was adapted to evaluate the presence and relative quantity of functional HSCs after L-TBI. Specifically, all cells from the BM and spleen (to account for potential changes to circulating HSCs) were collected and transplanted from vehicle or LHRH-Ant treated mice at day 14 after L-TBI into irradiated hosts (along with a rescue dose of congenic WBM cells to ensure survival). […]
Bone marrow transplant: In the competitive BM transplant, whole BM from CD45.2+ (vehicle or LHRH-Ant) donors and were collected and transplanted into lethally irradiated CD45.1+ mice (1100 cGy TBI, split dose) along with 2.5×10^5 CD45.1+ competitors, through tail vein injection. Donor chimerism was monitored monthly after transplant. […]

[1] = Hormone levels (testosterone, LH, FSH) after L-TBI; type: in vivo, mouse

CC(=O)N[C@H](Cc1ccc2ccccc2c1)C(=O)N[C@H](Cc1ccc(Cl)cc1)C(=O)N[C@H](Cc1cccnc1)C(=O)N[C@@H](CO)C(=O)N[C@@H](Cc1ccc(NC(=O)[C@@H]2CC(=O)NC(=O)N2)cc1)C(=O)N[C@H](Cc1ccc(NC(N)=O)cc1)C(=O)N[C@@H](CC(C)C)C(=O)N[C@@H](CCCCNC(C)C)C(=O)N1CCC[C@H]1C(=O)N[C@H](C)C(N)=O [LHRH-Ant, Degarelix] (Ac-[d2Nal][dPhe(4-Cl)][d3Pal]S[Phe(4-NH2)](Dihydroorotyl(S))[dPhe(4-NHCONH2)]L[Lys(iPr)]P[dA]-NH2)
hematopoietic reconstitution of host mice (functional HSCs): significantly better hematopoietic reconstitution | level of testosterone ([1]; after radiation): did not significantly lower the level of testosterone | level of FSH ([1]; irradiated mice): dramatically decreased | level of LH ([1]; irradiated mice): dramatically decreased
